In assay [1] the target is COX-1 (Homo sapiens, UniProt P23219). In words: Microsomal assay, inhibition of COX-1. It is filed as biochemical. The protocol: (§1) Inhibitory activity against microsomal h-COX2 was assessed against a microsomal preparation from baculovirus infected SF9 cells. An aliquot of microsomal preparation was thawed slowly on ice and a 1/40,000 dilution prepared from it into the assay buffer (sterile water, degassed with argon containing 100 mM HEPES (pH 7.4), 10 mM EDTA (pH7.4), 1 mM phenol, 1 mM reduced glutathione, 20 mg/ml gelatin and 0.001 mM Hematin). Once diluted the enzyme solution was then sonicated for 5 seconds (Branson sonicator, setting 4, 1 cm tip) to ensure a homogeneous suspension. 155 μl enzyme solution was then added to each well of a 96-well microtitre plate containing either […] test compound (40×required test concentration) or 5 μl DMSO for controls. Plates were then mixed and incubated at room temperature for 1 hour. Following the incubation period, 40 μl of 0.5 μM arachidonic acid was added to each well to give a final concentration of 0.1 μM. Plates were then mixed and incubated for exactly 10 minutes (room temperature) prior to addition of 25 μl 1M HCl (hydrochloric acid) to each well to stop the reaction. 25 μl of 1M NaOH (sodium hydroxide) was then added to each well to neutralise the solution prior to determination of PGE2 levels by enzyme immunoassay (EIA).
Chain of COX-1 (P23219 24-599): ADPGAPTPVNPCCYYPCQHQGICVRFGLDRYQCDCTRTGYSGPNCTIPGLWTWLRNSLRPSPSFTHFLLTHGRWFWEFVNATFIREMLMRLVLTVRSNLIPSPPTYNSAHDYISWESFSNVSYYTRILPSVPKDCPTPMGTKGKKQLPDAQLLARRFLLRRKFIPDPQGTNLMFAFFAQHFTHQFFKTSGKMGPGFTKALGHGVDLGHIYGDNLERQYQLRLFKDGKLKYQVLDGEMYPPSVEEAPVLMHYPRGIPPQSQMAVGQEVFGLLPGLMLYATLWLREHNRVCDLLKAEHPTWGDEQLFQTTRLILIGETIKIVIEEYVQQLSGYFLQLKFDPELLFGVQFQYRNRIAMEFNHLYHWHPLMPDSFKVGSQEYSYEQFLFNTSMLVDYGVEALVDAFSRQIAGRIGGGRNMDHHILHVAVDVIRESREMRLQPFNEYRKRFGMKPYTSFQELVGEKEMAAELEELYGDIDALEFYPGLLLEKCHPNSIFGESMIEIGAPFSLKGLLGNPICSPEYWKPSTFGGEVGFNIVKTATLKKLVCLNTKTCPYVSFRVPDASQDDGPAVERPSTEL
(§2) The following IC50 value for inhibition of COX-2 and COX-1 were obtained from the microsomal assay for compounds of the invention: […]

Assay [2] deals with T1, microsomal h-COX2 (Homo sapiens, UniProt P35354).
T1 construct: made in house; host or cells: baculovirus infected SF9 cells (microsomal preparation)
T1 sequence (P35354 18-604): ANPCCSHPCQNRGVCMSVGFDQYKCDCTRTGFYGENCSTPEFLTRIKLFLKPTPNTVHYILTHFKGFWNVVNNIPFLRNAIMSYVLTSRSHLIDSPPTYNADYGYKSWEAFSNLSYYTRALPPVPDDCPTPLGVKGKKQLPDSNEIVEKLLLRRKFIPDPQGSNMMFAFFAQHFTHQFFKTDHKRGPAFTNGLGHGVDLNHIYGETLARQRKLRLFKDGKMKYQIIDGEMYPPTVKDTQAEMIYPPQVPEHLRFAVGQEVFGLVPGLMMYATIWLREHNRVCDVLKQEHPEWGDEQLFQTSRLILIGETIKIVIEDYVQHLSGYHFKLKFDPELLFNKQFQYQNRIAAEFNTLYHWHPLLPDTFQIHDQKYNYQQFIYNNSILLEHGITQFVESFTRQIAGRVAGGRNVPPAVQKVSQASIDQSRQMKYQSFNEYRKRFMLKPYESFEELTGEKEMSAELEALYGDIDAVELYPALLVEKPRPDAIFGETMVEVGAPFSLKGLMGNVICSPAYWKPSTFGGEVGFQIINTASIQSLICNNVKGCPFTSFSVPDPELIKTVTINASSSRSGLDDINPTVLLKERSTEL
In words: Microsomal assay, inhibition of h-COX2. It counts as biochemical. Conditions: microsomal preparation from baculovirus infected SF9 cells; PGE2 by EIA; read-out: COX-2: IC50. The protocol: as §1, §2

Turning to `CS(=O)(=O)c1ccc(-c2cc(CF)nc(NCc3ccccc3)n2)cc1` [Example 1, 4-[4-(Methylsulfonyl)phenyl]-N-(Phenylmethyl)-6(fluoromethyl)pyrimidin-2-amine], the IC50 (as a rule, the midpoint of a concentration-inhibition curve) in assay [1] came to 17.7 µM; in assay [2], 0.022 µM.

The values are drawn from US7056928B2, “Pyrimidine derivatives as selective inhibitors of COX-2” (Glaxo Group Limited, priority 2001, dated 2006).
